What all share (assay): NCI-60 cell line screen, 48 h
The subject of test [1] is T-47D breast.
Test [2] relates to MDA-MB-435.
For test [3], the system named is UACC-257 melanoma.
In test [4] the test system is HL-60(TB) leukemia.
Test [5] has as its system SF-268 CNS.
Test [6] relates to MCF7 breast.
Test [7] concerns KM12 colon.
Test [8] relates to UO-31 renal.
The test system of test [9] is CAKI-1 renal.
For test [10], the system named is SNB-19 CNS.

Several values for one entry are separate records, joined by “and”; a condition that tells them apart may be missing. Identical values can stand only once.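 Five compound concentrations were applied to cells in 96-well plates for 48 hours; endpoints were derived by simple linear interpolation of the resulting dose-response curve. GI50 is the concentration that inhibits growth by half. TGI: total growth inhibition.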

On to `NCCNCC(O)CO` (centres undefined), for which the TGI in test [1], in test [2], in [3], in [4], in test [5] and in test [6] was above 100 µM throughout. Further, the TGI in test [7], in test [8], in test [9] and in test [10] was above 100 µM each time.
Regarding `COc1cc(-c2oc3c(OC)c(OC)cc(O)c3c(=O)c2OC)ccc1O`, the TGI in test [1] is 34.4 µM; in test [2], above 50 µM; in [3], above 100 µM; in test [4] it was 7.58 µM; in [5], above 100 µM; in test [6], above 50 µM. Besides, the TGI in [7] was above 100 µM; in [8], above 100 µM; in test [9], above 50 µM; in [10] it was above 100 µM. Moreover, the GI50 in [5] was 34.4 µM and 15.3 µM; in [7], > 100 µM and 19 µM; in [8], 3.88 µM and 8.21 µM.
As to `COC(=O)c1ccc(=O)c2nc3/c(=C/O)c(O)cc(=O)c3[nH]c12`, the GI50 in test [1] was 1.29 µM; in test [2] it was 0.559 µM; in test [3], 2.74 µM; in [4], 0.601 µM; in [5], 1.2 µM; in [6], 0.652 µM. Also, the GI50 in test [7] was 1.6 µM; in test [8] it was 0.578 µM; in test [9], 0.581 µM; in test [10], 1.28 µM. Further, the TGI was 8.65 µM and 48.2 µM in [1]; 23.7 µM and 13.2 µM in [2]; 16.1 µM and 27.8 µM in test [3]; 19.3 µM in [4]; 24.9 µM and 18.6 µM in [5]; 17.5 µM and 22.8 µM in test [6]. Further, the TGI in [7] was 20.1 µM and 18.1 µM; in test [8] it was 8.11 µM and 18 µM; in test [9] it was 12.8 µM and 12.6 µM; in test [10], 32.2 µM and 20.4 µM.
Consider `CCCCn1c2c(c3ccccc3c1=O)C(=O)c1ccccc1-2`, for which the TGI in test [1], in test [2], in test [3], in test [4], in test [5] and in test [6] was above 100 µM in each case. Besides, the TGI in [7], in test [8] and in test [9] was above 100 µM each time.
As to `Cc1cc(O)c2c(c1)C(=O)c1cc(O)cc(O)c1C2=O`, the figures for the GI50 in test [1], in [2] and in test [6] were 21.2 µM, 18.1 µM and 27.7 µM, respectively. Also, the TGI in test [1] is above 100 µM; in test [2], 62.5 µM; in test [3], above 100 µM; in test [4] it was 76.5 µM; in test [5], 97.5 µM; in [6], above 100 µM. The TGI in [7] is above 57.5 µM; in test [9], 52.9 µM; in [10] it was above 100 µM.
`NC1=NC(c2ccccc2)N=C(Nc2ccccc2)N1` (centres undefined): the GI50 in test [1] is above 100 µM; in test [2] it was 34.5 µM; in [3], above 100 µM; in test [4] it was above 100 µM; in test [5], 55.1 µM; in [6] it was 38.5 µM. The GI50 in [7] was 31.6 µM; in [9] it was above 100 µM; in test [10] it was above 100 µM. The TGI in [1], in [2], in [3], in test [4], in test [5] and in test [6] was above 100 µM in each case. The TGI in test [7], in test [9] and in [10] was above 100 µM throughout.
On to `O=C(Nc1cnn2ccc(N3CCC[C@@H]3c3cc(F)ccc3F)nc12)N1CC[C@H](O)C1`, for which the GI50 was above 100 µM in test [1]; above 100 µM in test [2]; above 100 µM in test [4]; above 100 µM in test [5]; above 100 µM in test [6]; 0.0122 µM in test [7]. Moreover, the GI50 in test [8], in test [9] and in test [10] was above 100 µM throughout. In addition, the TGI in [1], in [2], in [4], in [5], in [6] and in [7] was above 100 µM in each case. The TGI in test [8], in [9] and in [10] was above 100 µM throughout.
`C(CCc1nnc2c(n1)CCCC2)Cc1nnc2c(n1)CCCC2`: the TGI in [1], in test [2], in [4], in test [5], in test [6] and in test [7] was above 100 µM each time. Besides, the TGI in [8], in test [9] and in [10] was above 100 µM throughout.
